This is an account of results in PubChem BioAssay (NCI).

Among the test systems are BT-549 breast; SF-295 CNS; UO-31 renal; SW-620 colon; HS 578T breast; DU-145 prostate; OVCAR-4 ovarian; K-562 leukemia; PC-3 prostate; RXF 393 renal.
Common to all, as to experiment: NCI tumour cell line growth inhibition, 48 h

Structures are written as SMILES.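 Cells were grown in 96-well plates and exposed to each compound for 48 hours at five concentrations; endpoints were interpolated linearly between bracketing concentrations, or set to the highest concentration if not reached. Here, GI50 denotes the concentration required for 50% inhibition of growth. TGI: total growth inhibition.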

On to `O=CN1CCN(c2ccc3ccc(=O)[nH]c3n2)CC1`, for which the TGI with BT-549 breast, in the experiment with SF-295 CNS, with UO-31 renal, in the experiment with SW-620 colon, in the experiment with HS 578T breast and in the experiment on DU-145 prostate was > 100 µM in each case. Further, the TGI with OVCAR-4 ovarian, with K-562 leukemia and in the experiment on PC-3 prostate was > 100 µM in each case.
On to `OCCc1ccsc1-c1sc(-c2cc(CCO)c(-c3sc(-c4cc(CCO)c(-c5sccc5CCO)s4)cc3CCO)s2)cc1CCO`, for which the TGI in the experiment with BT-549 breast worked out at 2.21 µM; in the experiment on SF-295 CNS, 2.7 µM; in the experiment with UO-31 renal it was 2.7 µM; in the experiment on SW-620 colon it was 3.98 µM; with HS 578T breast, 7.31 µM; in the experiment with RXF 393 renal, 1.21 µM. Moreover, the values for the TGI in the experiment with DU-145 prostate, in the experiment with OVCAR-4 ovarian and in the experiment with PC-3 prostate were 4.53 µM, 2.52 µM and 2.67 µM, respectively.
For the compound `C[N+]1(C)CCCC(C#N)(c2ccccc2)CC1` (stereo not drawn), the TGI with SF-295 CNS, in the experiment on UO-31 renal, in the experiment on SW-620 colon, with HS 578T breast, in the experiment with RXF 393 renal and in the experiment on DU-145 prostate was > 100 µM in each case. Moreover, the TGI with OVCAR-4 ovarian, with K-562 leukemia and with PC-3 prostate was > 100 µM each time.
As for `C[C@]12CC[C@H]3[C@@H](CC=C4C[C@@H](O)CC[C@@]43C)[C@@H]1C/C(=C\c1cccnc1)[C@@H]2O`, the TGI in the experiment with BT-549 breast is 48.9 µM; in the experiment with SF-295 CNS, 17.2 µM; with UO-31 renal, > 100 µM; with SW-620 colon, > 100 µM; in the experiment with HS 578T breast, 33.3 µM; in the experiment with RXF 393 renal, 80.2 µM. The TGI with DU-145 prostate is 67.4 µM; with OVCAR-4 ovarian, 58.9 µM; in the experiment with PC-3 prostate, > 100 µM.
In the case of `CCOC(=O)C(O)(CC1=NC(C(=O)OC)(C(=O)OC)C(c2cccc(C=O)c2)O1)C(=O)OCC` (stereo not drawn), the TGI in the experiment on BT-549 breast, in the experiment with UO-31 renal, in the experiment with SW-620 colon, in the experiment on RXF 393 renal, in the experiment on DU-145 prostate and with OVCAR-4 ovarian was > 100 µM each time. Also, the TGI with K-562 leukemia and with PC-3 prostate was > 100 µM each time.
For `CN(C)C(=O)C(F)(F)C(c1ccccc1)C1C(=O)N(C)C(=O)N(C)C1=O` (stereo not drawn), the TGI with BT-549 breast, in the experiment with SF-295 CNS, in the experiment with UO-31 renal, with SW-620 colon, with RXF 393 renal and in the experiment with DU-145 prostate was > 100 µM throughout. Moreover, the TGI in the experiment on OVCAR-4 ovarian, with K-562 leukemia and in the experiment with PC-3 prostate was > 100 µM throughout.
Consider `CC(C)c1cc(=O)[nH]c2cc(N)ccc12`, for which the TGI in the experiment with BT-549 breast, with SF-295 CNS, with UO-31 renal, in the experiment on SW-620 colon, in the experiment on RXF 393 renal and in the experiment on DU-145 prostate was > 100 µM throughout. The TGI with OVCAR-4 ovarian, with K-562 leukemia and with PC-3 prostate was > 100 µM throughout.
Turning to `O/N=C\c1c2c(cc3c1CCC3)CCC2`, the TGI in the experiment with BT-549 breast, in the experiment on SF-295 CNS, in the experiment with UO-31 renal, with SW-620 colon, in the experiment with HS 578T breast and with DU-145 prostate was > 100 µM in each case. Moreover, the TGI with OVCAR-4 ovarian, with K-562 leukemia and with PC-3 prostate was > 100 µM each time.
Consider `Cc1ccc(S(=O)(=O)OC[C@@]2(C)CC[C@]3(C)CC[C@]4(C)C(=C3C2)C=C[C@@H]2[C@@]3(C)CCCNC(C)(C)[C@@H]3CC[C@]24C)cc1`, for which the GI50 is 1.78 µM in the experiment on SF-295 CNS; 1.46 µM in the experiment on UO-31 renal; 1.78 µM with SW-620 colon; 1.94 µM with HS 578T breast; 1.35 µM with RXF 393 renal; 1.81 µM in the experiment on DU-145 prostate. Also, the results for the GI50 with OVCAR-4 ovarian and in the experiment with PC-3 prostate were 1.66 µM and 1.53 µM, respectively. The TGI was 3.29 µM with SF-295 CNS; 2.85 µM with UO-31 renal; 3.54 µM in the experiment with SW-620 colon; 4.26 µM with HS 578T breast; 2.86 µM with RXF 393 renal; 3.4 µM with DU-145 prostate. Further, the TGI in the experiment with OVCAR-4 ovarian was 3.16 µM; in the experiment with PC-3 prostate, 2.98 µM.
Regarding `C=CCOCC1C2CCC3(OCCO3)C21` (stereo not drawn), the TGI was > 100 µM with BT-549 breast; > 100 µM with SF-295 CNS; 75.2 µM in the experiment with UO-31 renal; > 100 µM in the experiment with SW-620 colon; > 100 µM in the experiment with RXF 393 renal; > 100 µM in the experiment on DU-145 prostate. The TGI in the experiment with OVCAR-4 ovarian, in the experiment on K-562 leukemia and with PC-3 prostate was > 100 µM each time.
As for `ClC1=NSSC1(Cl)Cl`, the TGI with BT-549 breast is > 100 µM; in the experiment on SF-295 CNS, > 100 µM; in the experiment on UO-31 renal, 78 µM; in the experiment with SW-620 colon it was 82.3 µM; in the experiment with RXF 393 renal it was > 100 µM; in the experiment on DU-145 prostate, > 100 µM. Besides, the TGI in the experiment with OVCAR-4 ovarian was > 100 µM; with K-562 leukemia, 24 µM; with PC-3 prostate, > 100 µM.
Take `[CH3][Sn]([CH3])([CH3])[S]C(=S)N1CCOCC1`: the GI50 is 3.51 µM in the experiment with SF-295 CNS; 6.24 µM in the experiment on UO-31 renal; 0.208 µM with SW-620 colon; 0.7 µM in the experiment with RXF 393 renal; 0.818 µM in the experiment with OVCAR-4 ovarian; 0.36 µM in the experiment on K-562 leukemia. The TGI is 13.2 µM in the experiment with SF-295 CNS; > 25.1 µM in the experiment with UO-31 renal; 2.42 µM with SW-620 colon; 4.21 µM in the experiment with OVCAR-4 ovarian; 5.84 µM in the experiment on K-562 leukemia.
`CCOC(=O)C1=C(O)CC(=O)N=C1N1CCCC1`: the TGI in the experiment on SF-295 CNS, in the experiment with UO-31 renal, in the experiment on SW-620 colon, in the experiment with HS 578T breast, in the experiment with RXF 393 renal and in the experiment on DU-145 prostate was > 100 µM throughout. The TGI in the experiment on OVCAR-4 ovarian, with K-562 leukemia and in the experiment with PC-3 prostate was > 100 µM in each case.
`CC1(C)N=C(C(N)=O)c2[nH]cnc2N1`: the TGI in the experiment with SF-295 CNS, in the experiment on SW-620 colon, in the experiment with HS 578T breast, in the experiment with RXF 393 renal, in the experiment on DU-145 prostate and with OVCAR-4 ovarian was > 100 µM each time. Besides, the TGI with K-562 leukemia and in the experiment on PC-3 prostate was > 100 µM throughout.
